Source: PubChem BioAssay (NCI)
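Exposure lasted 48 hours, with cells grown in 96-well plates and compounds tested at five concentrations. GI50 = concentration required for 50% inhibition of growth. TGI denotes the concentration required for complete inhibition of growth.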

Assays:
Assay in all cases: inhibition of tumour cell growth, NCI panel, 48 h
A498 renal = system: A498 renal
COLO 205 colon = system: COLO 205 colon
HCC-2998 colon = system: HCC-2998 colon
HOP-62 NSCLC = system: HOP-62 NSCLC
KM12 colon = system: KM12 colon
LOX IMVI melanoma = system: LOX IMVI melanoma
NCI-H460 lung = system: NCI-H460 lung
SF-268 CNS = system: SF-268 CNS
SK-MEL-2 melanoma = system: SK-MEL-2 melanoma
T-47D breast = system: T-47D breast

| SMILES | TGI (A498 renal) | TGI (COLO 205 colon) | TGI (HCC-2998 colon) | TGI (HOP-62 NSCLC) | TGI (KM12 colon) | TGI (LOX IMVI melanoma) | TGI (NCI-H460 lung) | TGI (SF-268 CNS) | TGI (SK-MEL-2 melanoma) | GI50 (COLO 205 colon) | GI50 (HCC-2998 colon) | GI50 (KM12 colon) | GI50 (LOX IMVI melanoma) | GI50 (NCI-H460 lung) | GI50 (SF-268 CNS) | GI50 (SK-MEL-2 melanoma) | GI50 (A498 renal) | GI50 (HOP-62 NSCLC) | GI50 (T-47D breast) | TGI (T-47D breast) |
| --- | --- | --- | --- | --- | --- | --- | --- | --- | --- | --- | --- | --- | --- | --- | --- | --- | --- | --- | --- | --- |
| C=C1CC[C@@H]2C(C)(C)CCC[C@@]2(C)[C@@H]1Cc1cc(O)ccc1O | 27.6 µM | 31.4 µM | 28 µM | 25.8 µM | 19.2 µM | 5.35 µM | 33.4 µM | 12.9 µM | 6.39 µM | – | – | – | – | – | – | – | – | – | – | – |
| O=C(O)C12C3CCCC1C2CC3 (centres undefined) | > 100 µM | > 100 µM | – | > 100 µM | > 100 µM | > 100 µM | > 100 µM | > 100 µM | > 100 µM | – | – | – | – | – | – | – | – | – | – | – |
| N.N.NC(CS)C(=O)[O-].NC(CS)C(=O)[O-].[Pt+4] (centres undefined) | – | > 50 µM | > 50 µM | – | > 50 µM | > 50 µM | > 50 µM | > 50 µM | > 50 µM | > 50 µM | > 50 µM | > 50 µM | > 50 µM | > 50 µM | > 50 µM | > 50 µM | – | – | – | – |
| Cc1c2cc[nH]c(=O)c2cc2c(=O)c3cnccc3[nH]c12 | > 100 µM | > 100 µM | > 100 µM | > 100 µM | > 100 µM | > 100 µM | > 100 µM | > 100 µM | > 100 µM | – | – | – | – | – | – | – | – | – | – | – |
| O=C(Oc1ccc(CCl)cc1)c1ccccc1 | 1.83 µM | 0.307 µM | 0.385 µM | 0.333 µM | 0.323 µM | 0.305 µM | 1.09 µM | 0.326 µM | 0.358 µM | 0.136 µM | 0.189 µM | 0.166 µM | 0.158 µM | 0.238 µM | 0.17 µM | 0.175 µM | 0.221 µM | 0.17 µM | – | – |
| CC(=O)OCC1OC(n2c(=O)n(-c3ccccc3)c(=O)c3ccccc32)C(OC(C)=O)C(OC(C)=O)C1OC(C)=O (centres undefined) | > 100 µM | > 100 µM | > 100 µM | > 100 µM | > 100 µM | > 100 µM | > 100 µM | > 100 µM | > 100 µM | – | – | – | – | – | – | – | – | – | – | – |
| CN(c1ccccc1)C(c1ccccc1)C(O)c1ccccc1 (centres undefined) | 37.5 µM | 30.1 µM | 38.8 µM | 38 µM | 34.4 µM | 31.7 µM | 36.2 µM | 42.1 µM | 31.8 µM | – | – | – | – | – | – | – | – | – | – | – |
| COc1cc2c(/C=C3/C(=O)Nc4ccccc43)c(Cl)n(Cc3ccccc3[N+](=O)[O-])c2cc1C | 32.6 µM | 15.5 µM | – | 27.6 µM | 21.3 µM | 24 µM | > 100 µM | > 100 µM | 40.5 µM | 3.18 µM | – | 4.9 µM | 9.17 µM | 5.51 µM | 24 µM | 12.9 µM | 12.4 µM | 10.7 µM | 4.11 µM | 21.8 µM |
| Cc1nc2cccc(NCc3ccc(C(=O)NO)cc3)c2c(=O)n1-c1ccccc1 | 3.28 µM | 3.97 µM | 3.27 µM | 4.47 µM | 3.59 µM | 3.35 µM | 10.5 µM | – | 5.12 µM | 1.87 µM | 1.81 µM | 1.8 µM | 1.82 µM | 2.21 µM | – | 2.36 µM | 1.7 µM | 1.65 µM | – | – |
| COC(=O)C1=C(O)C(O)=C(C(=O)OC)C1 | > 100 µM | > 100 µM | > 100 µM | > 100 µM | > 100 µM | > 100 µM | > 100 µM | > 100 µM | > 100 µM | – | – | – | – | – | – | – | – | – | – | – |
| COc1ccc(-c2nc(-c3ccccc3)c(-c3ccccc3)n2C2CC2)cc1OC1CCCC1 | > 165 µM | > 165 µM | – | > 165 µM | > 165 µM | > 165 µM | > 165 µM | > 165 µM | > 165 µM | 51.3 µM | – | 50.9 µM | 15.1 µM | 11 µM | 44.9 µM | 105 µM | 9.57 µM | > 165 µM | 51.5 µM | > 165 µM |
| CCOP(=O)(OCC)/C(C#N)=C/c1ccco1 | > 100 µM | > 100 µM | > 100 µM | > 100 µM | > 100 µM | > 100 µM | > 100 µM | > 100 µM | > 100 µM | – | – | – | – | – | – | – | – | – | – | – |
| ON=C1CCC(c2ccccc2)CC1 (centres undefined) | > 100 µM | > 100 µM | > 100 µM | > 100 µM | > 100 µM | > 100 µM | > 100 µM | > 100 µM | > 100 µM | – | – | – | – | – | – | – | – | – | – | – |
| COC(=O)c1ccc(N=NN(C)CO)cc1 | > 100 µM | > 100 µM | > 100 µM | > 100 µM | > 100 µM | > 100 µM | > 100 µM | – | > 100 µM | – | – | – | – | – | – | – | – | – | – | – |
| CCOC(=O)CC1=CSC2=NCCN12 | > 100 µM | > 100 µM | > 100 µM | > 100 µM | > 100 µM | > 100 µM | > 100 µM | > 100 µM | > 100 µM | – | – | – | – | – | – | – | – | – | – | – |
| COc1ccc(/C=C2/C[N+](C)(C)C/C(=C/c3ccc(OC)cc3)C2=O)cc1 | > 100 µM | 40.8 µM | 31 µM | > 100 µM | 36.3 µM | > 100 µM | > 100 µM | > 94.4 µM | 71.7 µM | – | – | – | – | – | – | – | – | – | – | – |
| C[C@]12CC[C@@H]3c4ccc(O)cc4CC[C@H]3[C@@H]1CC[C@@H]2NS(=O)(=O)Cc1ccc(Cl)cc1 | 3.87 µM | 3.27 µM | 8.14 µM | 8.14 µM | 4.39 µM | – | 5.31 µM | 12.5 µM | 6.35 µM | 1.81 µM | 2.99 µM | 2.05 µM | – | 2.23 µM | 3.16 µM | 2.54 µM | 1.29 µM | 2.97 µM | 2.85 µM | 8.11 µM |
| CCOC(=O)C(=O)Nc1c(N(CC)CC)n2ccccc2nc1=O | > 100 µM | > 100 µM | – | > 100 µM | > 100 µM | – | > 100 µM | > 100 µM | > 100 µM | – | – | – | – | – | – | – | – | – | – | – |
| CC(C)(C)[C@H]1CO[C@]2(C)[C@@H]3C[C@@H]3C(=O)N12 | – | > 100 µM | > 100 µM | > 100 µM | > 100 µM | > 100 µM | > 100 µM | > 100 µM | > 100 µM | – | – | – | – | – | – | – | – | – | – | – |
